Source: patent US20170088520A1, “DEUBIQUITINASE INHIBITORS” (PharmAkea, Inc., priority 2014, published 2017)

What was measured:
Assay type in all cases: cell-based
[1] = molecular target: T1, DUB activity in cells (NCI-H929, Z138, MM.1S, A375) (Homo sapiens, UniProt Q93008); test: HA-Ubiquitin-Vinylsulfone (HA-Ub-VS) cell labeling assay; conditions: compound tested at 5 μM; HA-Ub-VS labeling of USP9x in cells
T1 construct: endogenous in cells; host or cells: NCI-H929, Z138, MM.1S, A375
Summary of the method: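 NCI-H929, Z138, MM.1S or A375 cells (1–2×10^6) treated 2–6 h at 37 °C with compound in 0.5% DMSO, here 5 μM. Lysates labeled with HA-Ub-VS for 15–60 min at 37 °C. Labeled DUBs resolved by SDS-PAGE and quantified by anti-HA and anti-β-actin immunoblot with infrared detection.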

[2] = tested on: PARP cleavage in cells (NCI-H929, Z138, MM.1S, A-375); test: Analysis of PARP cleavage by Western blotting; conditions: compound tested at 5 μM; Western blot
Summary of the method: (§1)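 NCI-H929, Z138, MM.1S and A-375 cells were treated with compounds at 5 μM, and lysates were Western blotted with anti-Mcl-1 and anti-PARP antibodies, quantified by infrared fluorescence. Activity is a significant drop in Mcl-1 and the appearance of cleaved PARP, each relative to vehicle-treated cells.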

[3] = tested on: Mcl-1 expression in cells (NCI-H929, Z138, MM.1S, A-375); test: Analysis of Mcl-1 expression by Western blotting; conditions: compound tested at 5 μM; Western blot
Summary of the method: as §1

T1 sequence (Q93008 whole entry): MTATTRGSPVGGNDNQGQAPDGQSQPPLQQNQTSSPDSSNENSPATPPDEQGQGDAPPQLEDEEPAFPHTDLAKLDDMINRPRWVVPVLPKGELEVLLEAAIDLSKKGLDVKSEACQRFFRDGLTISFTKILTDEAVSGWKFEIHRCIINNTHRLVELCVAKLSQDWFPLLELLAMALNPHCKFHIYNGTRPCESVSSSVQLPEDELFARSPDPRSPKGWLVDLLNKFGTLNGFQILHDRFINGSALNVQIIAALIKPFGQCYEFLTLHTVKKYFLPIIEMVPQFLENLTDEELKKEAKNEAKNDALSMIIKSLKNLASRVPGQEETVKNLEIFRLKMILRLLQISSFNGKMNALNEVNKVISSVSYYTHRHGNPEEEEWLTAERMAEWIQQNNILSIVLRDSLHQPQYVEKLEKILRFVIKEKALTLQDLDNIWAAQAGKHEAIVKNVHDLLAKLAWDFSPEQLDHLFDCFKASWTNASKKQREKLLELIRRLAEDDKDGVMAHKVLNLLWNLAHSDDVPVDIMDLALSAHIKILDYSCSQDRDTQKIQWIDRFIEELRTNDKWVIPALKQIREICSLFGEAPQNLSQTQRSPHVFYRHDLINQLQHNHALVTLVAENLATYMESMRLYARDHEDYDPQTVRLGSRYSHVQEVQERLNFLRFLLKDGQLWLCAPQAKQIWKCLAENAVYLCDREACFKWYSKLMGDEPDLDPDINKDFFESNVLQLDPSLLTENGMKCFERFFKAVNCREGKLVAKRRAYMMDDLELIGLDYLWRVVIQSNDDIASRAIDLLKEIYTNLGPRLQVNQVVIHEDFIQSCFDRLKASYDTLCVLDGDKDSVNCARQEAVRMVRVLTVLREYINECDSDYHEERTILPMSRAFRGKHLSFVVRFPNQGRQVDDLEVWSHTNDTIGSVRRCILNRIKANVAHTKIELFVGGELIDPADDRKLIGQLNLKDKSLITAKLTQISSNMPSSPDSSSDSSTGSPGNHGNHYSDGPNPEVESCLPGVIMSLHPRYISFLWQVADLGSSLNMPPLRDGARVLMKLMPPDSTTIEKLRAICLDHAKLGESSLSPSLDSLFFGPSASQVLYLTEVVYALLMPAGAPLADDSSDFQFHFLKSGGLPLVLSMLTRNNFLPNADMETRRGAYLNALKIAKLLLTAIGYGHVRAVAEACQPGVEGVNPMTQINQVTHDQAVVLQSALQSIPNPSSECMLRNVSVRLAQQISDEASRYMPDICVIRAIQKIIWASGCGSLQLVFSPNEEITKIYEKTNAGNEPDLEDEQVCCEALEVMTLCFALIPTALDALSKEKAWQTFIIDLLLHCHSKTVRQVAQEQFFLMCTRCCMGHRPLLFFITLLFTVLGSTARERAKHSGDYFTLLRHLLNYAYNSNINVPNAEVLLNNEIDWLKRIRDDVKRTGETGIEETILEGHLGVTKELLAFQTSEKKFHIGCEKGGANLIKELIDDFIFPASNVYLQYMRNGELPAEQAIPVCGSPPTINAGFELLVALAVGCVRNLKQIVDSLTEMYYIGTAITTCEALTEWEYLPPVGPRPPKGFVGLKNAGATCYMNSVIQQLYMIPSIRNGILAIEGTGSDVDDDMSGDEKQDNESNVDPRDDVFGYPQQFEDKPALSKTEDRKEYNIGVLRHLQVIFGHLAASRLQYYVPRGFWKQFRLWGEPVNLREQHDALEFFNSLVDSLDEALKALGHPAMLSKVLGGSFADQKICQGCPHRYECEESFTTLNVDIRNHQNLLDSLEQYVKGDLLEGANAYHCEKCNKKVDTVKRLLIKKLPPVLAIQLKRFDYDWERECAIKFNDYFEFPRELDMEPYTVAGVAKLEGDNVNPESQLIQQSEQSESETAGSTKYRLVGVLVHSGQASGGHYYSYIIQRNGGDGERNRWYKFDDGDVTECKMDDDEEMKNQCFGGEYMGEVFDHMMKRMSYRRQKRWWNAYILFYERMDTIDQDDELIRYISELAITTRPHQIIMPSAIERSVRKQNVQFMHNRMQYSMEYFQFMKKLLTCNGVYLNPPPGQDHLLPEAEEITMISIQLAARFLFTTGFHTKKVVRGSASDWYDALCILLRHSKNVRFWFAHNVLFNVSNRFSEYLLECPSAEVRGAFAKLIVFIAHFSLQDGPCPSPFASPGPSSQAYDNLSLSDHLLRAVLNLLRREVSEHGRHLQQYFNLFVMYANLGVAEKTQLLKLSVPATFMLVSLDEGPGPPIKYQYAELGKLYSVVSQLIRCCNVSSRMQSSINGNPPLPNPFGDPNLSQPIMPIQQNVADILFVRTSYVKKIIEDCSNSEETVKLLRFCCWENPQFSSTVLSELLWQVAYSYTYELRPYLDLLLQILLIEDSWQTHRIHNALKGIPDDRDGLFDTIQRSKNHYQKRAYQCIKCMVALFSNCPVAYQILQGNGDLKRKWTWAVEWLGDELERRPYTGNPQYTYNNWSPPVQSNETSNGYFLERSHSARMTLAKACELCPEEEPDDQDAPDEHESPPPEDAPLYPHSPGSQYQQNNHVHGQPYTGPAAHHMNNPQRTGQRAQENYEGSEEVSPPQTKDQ

For `CC(C)(C)c1ccc(C2(NC(=O)/C(C#N)=C/c3ncc(Br)cc3Br)CCCC2)cc1` [Compound 27, (E)-N-(1-(4-(tert-butyl)phenyl)cyclopentyl)-2-cyano-3-(3,5-dibromopyridin-2-yl)acrylamide], the inhibition at 5 µM [1] was no less than 75%, the “PARP cleavage % Inhibition” value [2] was “A (A is ≧75% inhibition)” and the inhibition at 5 µM [3] was no less than 75%.
In the case of `N#C/C(=C\c1cccc(C2CC2)n1)C(=O)NC1(c2ccc(-c3cccnc3)cc2)CCCC1` [Compound 67, (E)-2-cyano-3-(6-cyclopropylpyridin-2-yl)-N-(1-(4-(pyridin-3-yl)phenyl)cyclopentyl)acrylamide], the inhibition at 5 µM [1] is reported as 50 to 75%, the “PARP cleavage % Inhibition” value [2] is reported as “A (A is ≧75% inhibition)” and the inhibition at 5 µM [3] is reported as no less than 75%.
`N#C/C(=C\c1ncc(Br)cc1Br)C(=O)NC1(c2ccc(-c3ccc(N4CCCCC4)nc3)cc2)CCCC1` [Compound 69, (E)-2-cyano-3-(3,5-dibromopyridin-2-yl)-N-(1-(4-(6-(piperidin-1-yl)pyridin-3-yl)phenyl)cyclopentyl)acrylamide] was tested, and the inhibition at 5 µM [1] was less than 25%, the “PARP cleavage % Inhibition” value [2] was “D (D is <25% inhibition)” and the inhibition at 5 µM [3] was less than 25%.
For `N#C/C(=C\c1cccc(Br)n1)C(=O)NC1(c2cccc(Br)c2)CCCC1` [Compound 58, (E)-N-(1-(3-bromophenyl)cyclopentyl)-3-(6-bromopyridin-2-yl)-2-cyanoacrylamide], the inhibition at 5 µM [1] was no less than 75%, the “PARP cleavage % Inhibition” value [2] was “A (A is ≧75% inhibition)” and the inhibition at 5 µM [3] was no less than 75%.
In the case of `N#C/C(=C\c1cccc(Br)n1)C(=O)NC1(c2ccc(-c3ccc(C(=O)O)cc3)cc2)CCCC1` [Compound 91, (E)-4′-(1-(3-(6-bromopyridin-2-yl)-2-cyanoacrylamido)cyclopentyl)-[1,1′-biphenyl]-4-carboxylic acid], the inhibition at 5 µM [1] is reported as 25 to 50%, the “PARP cleavage % Inhibition” value [2] is reported as “A (A is ≧75% inhibition)” and the inhibition at 5 µM [3] is reported as no less than 75%.
For `CN(C)C(=O)c1ccc(C2(NC(=O)/C(C#N)=C/c3ncc(Br)cc3Br)CCCC2)cc1` [Compound 66, (E)-4-(1-(2-cyano-3-(3,5-dibromopyridin-2-yl)acrylamido)cyclopentyl)-N,N-dimethylbenzamide], the inhibition at 5 µM [1] was 50 to 75%, the “PARP cleavage % Inhibition” value [2] was “A (A is ≧75% inhibition)” and the inhibition at 5 µM [3] was no less than 75%.
With `N#C/C(=C\c1ncc(Br)cc1Br)C(=O)NC1(c2ccncc2)CCCC1` [Compound 3-3, (E)-2-cyano-3-(3,5-dibromopyridin-2-yl)-N-(1-(pyridin-4-yl)cyclopentyl)acrylamide] the inhibition at 5 µM [1] was 50 to 75%, the “PARP cleavage % Inhibition” value [2] was “A (A is ≧75% inhibition)” and the inhibition at 5 µM [3] was no less than 75%.
With `N#C/C(=C\c1cccc(C2CC2)n1)C(=O)NC1(c2ccc(-c3ccc(CC(=O)O)cc3)cc2)CCCC1` [Compound 93, (E)-2-(4′-(1-(2-cyano-3-(6-cyclopropylpyridin-2-yl)acrylamido)cyclopentyl)-[1,1′-biphenyl]-4-yl)acetic acid] the inhibition at 5 µM [1] was 25 to 50%, the “PARP cleavage % Inhibition” value [2] was “A (A is ≧75% inhibition)” and the inhibition at 5 µM [3] was no less than 75%.
In the case of `Cn1cc(-c2cccc(/C=C(\C#N)C(=O)NC3(c4ccccc4)CCCC3)n2)cn1` [Compound 62, (E)-2-cyano-3-(6-(1-methyl-1H-pyrazol-4-yl)pyridin-2-yl)-N-(1-phenylcyclopentyl)acrylamide], the inhibition at 5 µM [1] is reported as 50 to 75%, the “PARP cleavage % Inhibition” value [2] is reported as “A (A is ≧75% inhibition)” and the inhibition at 5 µM [3] is reported as no less than 75%.
In the case of `CCOc1ncc(C(F)(F)F)cc1-c1cccc(/C=C(\C#N)C(=O)NC2(c3ccccc3)CCCC2)n1` [Compound 47, (E)-2-cyano-3-(2′-ethoxy-5′-(trifluoromethyl)-[2,3′-bipyridin]-6-yl)-N-(1-phenylcyclopentyl)acrylamide], the inhibition at 5 µM [1] is reported as 25 to 50%, the “PARP cleavage % Inhibition” value [2] is reported as “A (A is ≧75% inhibition)” and the inhibition at 5 µM [3] is reported as 50 to 75%.
With `N#C/C(=C\c1ccc(Cl)c(Cl)c1)C(=O)NC1(c2ccccc2)CCCC1` [Compound 11, (E)-3-(3,4-Dichlorophenyl)-2-cyano-N-(1-phenylcyclopentyl)acrylamide] the inhibition at 5 µM [1] was 25 to 50%, the “PARP cleavage % Inhibition” value [2] was “B (B is 50% to 75% inhibition)” and the inhibition at 5 µM [3] was 25 to 50%.
`COC(=O)c1ccc(C2(NC(=O)/C(C#N)=C/c3cccc(Br)n3)CCCC2)cc1` [Compound 41, (E)-methyl 4-(1-(3-(6-bromopyridin-2-yl)-2-cyanoacrylamido)cyclopentyl)benzoate] was tested, and the inhibition at 5 µM [1] was 50 to 75%, the “PARP cleavage % Inhibition” value [2] was “A (A is ≧75% inhibition)” and the inhibition at 5 µM [3] was no less than 75%.
For `COc1ncccc1-c1ccc(C2(NC(=O)/C(C#N)=C/c3ncc(Br)cc3Br)CCCC2)cc1` [Compound 53, (E)-2-cyano-3-(3,5-dibromopyridin-2-yl)-N-(1-(4-(2-methoxypyridin-3-yl)phenyl)cyclopentyl)acrylamide], the inhibition at 5 µM [1] was less than 25%, the “PARP cleavage % Inhibition” value [2] was “A (A is ≧75% inhibition)” and the inhibition at 5 µM [3] was 50 to 75%.
`N#C/C(=C\c1cccc(-c2cnc3[nH]ccc3c2)n1)C(=O)NC1(c2ccccc2)CCCC1` [Compound 61, (E)-3-(6-(1H-pyrrolo[2,3-b]pyridin-5-yl)pyridin-2-yl)-2-cyano-N-(1-phenylcyclopentyl)acrylamide] was tested, and the inhibition at 5 µM [1] was less than 25%, the “PARP cleavage % Inhibition” value [2] was “B (B is 50% to 75% inhibition)” and the inhibition at 5 µM [3] was less than 25%.
For `N#C/C(=C\c1cccc(C#CC2(O)CCCC2)n1)C(=O)NC1(c2ccncc2)CCCC1` [Compound 3-5], the inhibition at 5 µM [1] was less than 25%, the “PARP cleavage % Inhibition” value [2] was “D (D is <25% inhibition)” and the inhibition at 5 µM [3] was less than 25%.
In the case of `N#C/C(=C\c1ncc(Br)cc1Br)C(=O)NC1(c2ccccc2)CCOCC1` [Compound 24, (E)-2-Cyano-3-(3,5-dibromopyridin-2-yl)-N-(4-phenyltetrahydro-2H-pyran-4-yl)acrylamide], the inhibition at 5 µM [1] is reported as no less than 75%, the “PARP cleavage % Inhibition” value [2] is reported as “A (A is ≧75% inhibition)” and the inhibition at 5 µM [3] is reported as 50 to 75%.
For `N#C/C(=C\c1ncc(Br)cc1Br)C(=O)NC1(c2ccc(F)cc2)CCCC1` [Compound 21, (E)-2-Cyano-3-(3,5-dibromopyridin-2-yl)-N-(1-(4-fluorophenyl)cyclopentyl)acrylamide], the inhibition at 5 µM [1] was no less than 75%, the “PARP cleavage % Inhibition” value [2] was “A (A is ≧75% inhibition)” and the inhibition at 5 µM [3] was no less than 75%.
In the case of `N#C/C(=C\c1cccc(Br)n1)C(=O)NC1(c2ccc(-c3ccc4[nH]ccc4c3)cc2)CCCC1` [Compound 96, (E)-N-(1-(4-(1H-indol-5-yl)phenyl)cyclopentyl)-3-(6-bromopyridin-2-yl)-2-cyanoacrylamide], the inhibition at 5 µM [1] is reported as 50 to 75%, the “PARP cleavage % Inhibition” value [2] is reported as “A (A is ≧75% inhibition)” and the inhibition at 5 µM [3] is reported as 50 to 75%.
In the case of `CC(C)(C)OC(=O)COc1ccc(C2(NC(=O)/C(C#N)=C/c3cccc(Br)n3)CCCC2)cc1` [Compound 88, (E)-tert-butyl 2-(4-(1-(3-(6-bromopyridin-2-yl)-2-cyanoacrylamido)cyclopentyl)phenoxy)acetate], the inhibition at 5 µM [1] is reported as no less than 75%, the “PARP cleavage % Inhibition” value [2] is reported as “A (A is ≧75% inhibition)” and the inhibition at 5 µM [3] is reported as no less than 75%.
`COC(=O)/C=C/c1cccc(/C=C(\C#N)C(=O)NC2(c3ccccc3)CCCC2)n1` [Compound 42, (E)-methyl 3-(6-((E)-2-cyano-3-oxo-3-((1-phenylcyclopentyl)amino)prop-1-en-1-yl)pyridin-2-yl)acrylate] was tested, and the inhibition at 5 µM [1] was 50 to 75%, the “PARP cleavage % Inhibition” value [2] was “A (A is ≧75% inhibition)” and the inhibition at 5 µM [3] was no less than 75%.
`COC(=O)c1cncc(-c2cccc(/C=C(\C#N)C(=O)NC3(c4ccccc4)CCCC3)n2)c1` [Compound 33] was tested, and the inhibition at 5 µM [1] was 50 to 75%, the “PARP cleavage % Inhibition” value [2] was “A (A is ≧75% inhibition)” and the inhibition at 5 µM [3] was no less than 75%.
